Data: ChEMBL document CHEMBL5653631, “A Potent and Selective ULK1 Inhibitor Suppresses Autophagy and Sensitizes Cancer Cells to Nutrient Stress” (iScience, 2018)

Key:
[1] = molecular target: Maternal embryonic leucine zipper kinase (Homo sapiens) (UniProt Q14680); assay: Inhibition of human recombinant MELK at 500 nM related to control ULK1
[2] = molecular target: DNA-PK/Ku70/Ku85 (Homo sapiens) (UniProt P78527+P12956+P13010); assay: Inhibition of human recombinant DNAPK at 500 nM related to control ULK1; format: protein-complex assay
[3] = molecular target: Myosin light chain kinase 2, skeletal/cardiac muscle (Homo sapiens) (UniProt Q9H1R3); assay: Inhibition of human recombinant skMLCK at 15 nM related to control ULK1
Myosin light chain kinase 2, skeletal/cardiac muscle (Homo sapiens), sequence (Q9H1R3 whole entry): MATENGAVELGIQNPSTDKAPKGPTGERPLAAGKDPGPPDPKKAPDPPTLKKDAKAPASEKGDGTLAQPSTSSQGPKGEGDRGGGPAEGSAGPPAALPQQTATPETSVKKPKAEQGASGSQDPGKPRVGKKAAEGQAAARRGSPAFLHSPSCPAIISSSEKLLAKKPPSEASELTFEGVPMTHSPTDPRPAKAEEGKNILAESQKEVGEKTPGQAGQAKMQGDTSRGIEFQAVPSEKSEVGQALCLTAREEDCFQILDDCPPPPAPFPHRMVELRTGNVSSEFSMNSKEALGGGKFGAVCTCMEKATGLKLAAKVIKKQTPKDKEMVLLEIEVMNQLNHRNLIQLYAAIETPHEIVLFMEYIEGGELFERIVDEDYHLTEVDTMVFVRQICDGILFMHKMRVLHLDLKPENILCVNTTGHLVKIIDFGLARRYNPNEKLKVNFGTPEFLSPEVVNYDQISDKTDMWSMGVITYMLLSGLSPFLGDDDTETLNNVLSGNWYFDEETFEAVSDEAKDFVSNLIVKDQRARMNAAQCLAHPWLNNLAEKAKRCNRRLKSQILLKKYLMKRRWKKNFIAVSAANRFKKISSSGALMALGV

[4] = molecular target: RAF proto-oncogene serine/threonine-protein kinase (Homo sapiens) (UniProt P04049); assay: Inhibition of human recombinant RAF1 at 15 nM in presence of ATP by radiometric assay relative to control
RAF proto-oncogene serine/threonine-protein kinase (Homo sapiens), sequence (P04049 whole entry): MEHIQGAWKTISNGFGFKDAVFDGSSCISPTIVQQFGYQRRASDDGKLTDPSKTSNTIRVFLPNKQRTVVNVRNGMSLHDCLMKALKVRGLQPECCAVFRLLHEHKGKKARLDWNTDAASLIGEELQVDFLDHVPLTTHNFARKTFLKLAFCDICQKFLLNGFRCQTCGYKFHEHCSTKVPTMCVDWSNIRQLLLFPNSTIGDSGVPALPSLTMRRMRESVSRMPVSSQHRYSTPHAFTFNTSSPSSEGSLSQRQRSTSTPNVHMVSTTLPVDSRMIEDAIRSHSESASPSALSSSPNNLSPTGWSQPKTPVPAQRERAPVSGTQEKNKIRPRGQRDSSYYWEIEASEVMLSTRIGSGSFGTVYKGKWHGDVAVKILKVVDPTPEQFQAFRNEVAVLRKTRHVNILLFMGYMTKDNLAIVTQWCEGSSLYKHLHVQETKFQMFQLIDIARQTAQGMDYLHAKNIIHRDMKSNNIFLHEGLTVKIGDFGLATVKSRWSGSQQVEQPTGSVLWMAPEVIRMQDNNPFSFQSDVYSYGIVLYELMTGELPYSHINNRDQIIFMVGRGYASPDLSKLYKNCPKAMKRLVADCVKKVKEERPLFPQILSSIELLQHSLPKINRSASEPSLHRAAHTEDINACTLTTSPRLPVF

[5] = molecular target: Rho-associated protein kinase 1 (Homo sapiens) (UniProt Q13464); assay: Inhibition of human recombinant ROCK1 at 40 nM related to control ULK1
Rho-associated protein kinase 1 (Homo sapiens), sequence (Q13464 2-1354 limits assumed): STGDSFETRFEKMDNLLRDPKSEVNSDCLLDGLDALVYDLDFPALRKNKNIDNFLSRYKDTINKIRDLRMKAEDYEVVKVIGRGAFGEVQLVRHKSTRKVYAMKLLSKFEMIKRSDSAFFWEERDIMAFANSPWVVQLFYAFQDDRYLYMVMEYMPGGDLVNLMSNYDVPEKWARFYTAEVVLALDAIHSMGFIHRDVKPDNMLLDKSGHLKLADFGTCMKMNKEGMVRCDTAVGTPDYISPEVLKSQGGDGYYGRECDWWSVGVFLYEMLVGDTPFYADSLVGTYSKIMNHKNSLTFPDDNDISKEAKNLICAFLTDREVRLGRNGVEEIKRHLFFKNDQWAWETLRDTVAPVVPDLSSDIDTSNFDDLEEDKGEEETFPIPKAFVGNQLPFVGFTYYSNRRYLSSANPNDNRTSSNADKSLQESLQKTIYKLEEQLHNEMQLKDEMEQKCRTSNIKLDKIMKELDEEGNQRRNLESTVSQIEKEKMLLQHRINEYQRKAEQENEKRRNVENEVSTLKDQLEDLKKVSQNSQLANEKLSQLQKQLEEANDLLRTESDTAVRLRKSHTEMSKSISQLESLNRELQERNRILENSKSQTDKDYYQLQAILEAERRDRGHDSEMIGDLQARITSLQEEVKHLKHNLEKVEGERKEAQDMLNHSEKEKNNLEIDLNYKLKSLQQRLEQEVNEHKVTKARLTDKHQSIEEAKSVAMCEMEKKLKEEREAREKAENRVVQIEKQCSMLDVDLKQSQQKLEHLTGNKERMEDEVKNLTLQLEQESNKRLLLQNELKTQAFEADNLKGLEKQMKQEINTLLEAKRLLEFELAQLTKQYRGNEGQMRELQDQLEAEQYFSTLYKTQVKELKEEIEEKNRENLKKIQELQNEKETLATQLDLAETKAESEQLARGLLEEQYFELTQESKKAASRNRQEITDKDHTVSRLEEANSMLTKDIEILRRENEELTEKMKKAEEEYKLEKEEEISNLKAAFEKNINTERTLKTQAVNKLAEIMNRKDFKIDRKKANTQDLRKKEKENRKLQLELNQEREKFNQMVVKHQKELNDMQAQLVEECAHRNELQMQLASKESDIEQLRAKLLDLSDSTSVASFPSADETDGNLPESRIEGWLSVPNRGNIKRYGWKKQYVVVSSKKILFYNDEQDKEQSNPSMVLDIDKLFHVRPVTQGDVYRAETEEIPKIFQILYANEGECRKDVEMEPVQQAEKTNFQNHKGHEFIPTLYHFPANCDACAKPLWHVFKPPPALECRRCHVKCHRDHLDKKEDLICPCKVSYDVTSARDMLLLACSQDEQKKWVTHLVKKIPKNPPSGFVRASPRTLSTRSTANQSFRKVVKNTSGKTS

[6] = molecular target: T1, Ephrin type-A receptor 1 (Homo sapiens) (UniProt P21709); assay: Inhibition of human recombinant EphA1 at 40 nM in presence of ATP by radiometric assay relative to control
T1 sequence (whole entry): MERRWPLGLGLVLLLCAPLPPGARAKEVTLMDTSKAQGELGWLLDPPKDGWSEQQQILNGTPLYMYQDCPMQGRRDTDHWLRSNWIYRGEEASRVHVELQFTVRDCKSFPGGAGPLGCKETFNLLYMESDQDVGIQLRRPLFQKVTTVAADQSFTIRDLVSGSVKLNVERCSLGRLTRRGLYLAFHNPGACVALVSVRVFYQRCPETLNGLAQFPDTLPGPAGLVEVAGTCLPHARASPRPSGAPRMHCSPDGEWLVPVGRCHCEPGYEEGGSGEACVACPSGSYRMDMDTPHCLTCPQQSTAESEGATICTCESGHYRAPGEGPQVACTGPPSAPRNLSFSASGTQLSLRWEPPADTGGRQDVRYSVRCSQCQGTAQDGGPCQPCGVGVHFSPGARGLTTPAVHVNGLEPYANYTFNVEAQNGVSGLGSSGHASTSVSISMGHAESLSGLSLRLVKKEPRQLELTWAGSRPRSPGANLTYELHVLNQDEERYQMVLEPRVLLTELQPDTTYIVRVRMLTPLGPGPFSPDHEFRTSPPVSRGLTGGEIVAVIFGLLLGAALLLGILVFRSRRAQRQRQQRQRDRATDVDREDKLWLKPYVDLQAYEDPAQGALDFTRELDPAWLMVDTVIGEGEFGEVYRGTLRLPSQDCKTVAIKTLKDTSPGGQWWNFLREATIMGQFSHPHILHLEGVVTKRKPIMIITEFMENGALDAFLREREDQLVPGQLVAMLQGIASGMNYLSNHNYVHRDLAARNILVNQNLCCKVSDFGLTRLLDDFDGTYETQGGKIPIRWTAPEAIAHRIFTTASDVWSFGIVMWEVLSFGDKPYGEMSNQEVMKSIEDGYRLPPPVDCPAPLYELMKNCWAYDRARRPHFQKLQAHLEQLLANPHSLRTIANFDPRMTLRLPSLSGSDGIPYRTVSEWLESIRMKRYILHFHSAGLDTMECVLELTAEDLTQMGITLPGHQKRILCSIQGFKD

[7] = molecular target: T2, Tribbles homolog 2 (Homo sapiens) (UniProt Q92519); assay: Inhibition of human recombinant Trb2 at 40 nM in presence of ATP by radiometric assay relative to control
T2 sequence (whole entry): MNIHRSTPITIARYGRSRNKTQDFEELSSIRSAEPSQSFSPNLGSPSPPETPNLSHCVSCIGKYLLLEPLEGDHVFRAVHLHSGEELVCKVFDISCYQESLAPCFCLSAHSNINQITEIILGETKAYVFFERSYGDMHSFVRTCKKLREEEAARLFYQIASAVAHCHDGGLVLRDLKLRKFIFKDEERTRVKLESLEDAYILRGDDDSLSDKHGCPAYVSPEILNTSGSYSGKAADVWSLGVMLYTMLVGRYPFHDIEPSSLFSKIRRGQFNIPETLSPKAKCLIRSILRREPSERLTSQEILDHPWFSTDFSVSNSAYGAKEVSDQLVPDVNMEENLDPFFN

[8] = molecular target: T3, Mitogen-activated protein kinase kinase kinase kinase 2 (Homo sapiens) (UniProt Q12851); assay: Inhibition of human recombinant GCK at 40 nM related to control ULK1
T3 sequence (whole entry): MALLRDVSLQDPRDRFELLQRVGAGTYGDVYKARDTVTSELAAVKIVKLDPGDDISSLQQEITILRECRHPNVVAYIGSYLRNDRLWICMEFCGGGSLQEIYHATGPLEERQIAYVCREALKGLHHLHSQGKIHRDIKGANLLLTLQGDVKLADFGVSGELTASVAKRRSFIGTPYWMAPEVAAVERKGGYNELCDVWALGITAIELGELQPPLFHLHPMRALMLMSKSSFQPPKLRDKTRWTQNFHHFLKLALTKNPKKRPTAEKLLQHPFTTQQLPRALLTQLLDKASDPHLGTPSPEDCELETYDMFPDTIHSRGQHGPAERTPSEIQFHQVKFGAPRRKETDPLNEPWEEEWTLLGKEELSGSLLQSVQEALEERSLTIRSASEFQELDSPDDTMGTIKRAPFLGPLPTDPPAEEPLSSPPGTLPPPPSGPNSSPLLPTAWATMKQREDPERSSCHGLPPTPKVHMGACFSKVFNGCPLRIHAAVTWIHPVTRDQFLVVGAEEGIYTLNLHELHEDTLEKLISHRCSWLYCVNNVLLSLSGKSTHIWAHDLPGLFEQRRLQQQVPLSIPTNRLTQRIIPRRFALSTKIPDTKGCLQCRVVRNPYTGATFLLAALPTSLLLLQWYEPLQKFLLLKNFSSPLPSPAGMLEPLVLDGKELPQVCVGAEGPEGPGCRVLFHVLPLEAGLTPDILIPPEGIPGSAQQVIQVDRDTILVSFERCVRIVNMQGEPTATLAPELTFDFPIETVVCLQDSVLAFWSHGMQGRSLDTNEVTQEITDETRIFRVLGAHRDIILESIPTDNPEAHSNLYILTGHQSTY

Maternal embryonic leucine zipper kinase (Homo sapiens), sequence (Q14680 whole entry, looked up): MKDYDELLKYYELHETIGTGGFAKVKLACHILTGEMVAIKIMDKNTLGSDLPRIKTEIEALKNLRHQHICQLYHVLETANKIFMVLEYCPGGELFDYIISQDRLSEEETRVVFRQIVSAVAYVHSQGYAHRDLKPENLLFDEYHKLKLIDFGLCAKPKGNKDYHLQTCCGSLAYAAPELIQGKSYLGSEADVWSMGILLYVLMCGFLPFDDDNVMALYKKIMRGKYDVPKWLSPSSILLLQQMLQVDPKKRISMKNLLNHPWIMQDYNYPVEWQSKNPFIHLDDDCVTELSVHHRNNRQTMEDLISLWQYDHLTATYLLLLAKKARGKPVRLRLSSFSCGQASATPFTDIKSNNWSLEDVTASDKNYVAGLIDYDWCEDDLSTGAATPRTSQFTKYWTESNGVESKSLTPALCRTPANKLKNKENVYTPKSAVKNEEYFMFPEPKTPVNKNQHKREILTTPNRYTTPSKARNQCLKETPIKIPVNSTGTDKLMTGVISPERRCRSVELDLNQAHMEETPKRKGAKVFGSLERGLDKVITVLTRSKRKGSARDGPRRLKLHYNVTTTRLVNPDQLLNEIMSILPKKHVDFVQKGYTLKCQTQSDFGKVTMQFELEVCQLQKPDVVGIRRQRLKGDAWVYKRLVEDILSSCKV

## CNC(=O)c1ccccc1Oc1nc(Nc2cc(OC)c(OC)c(OC)c2)ncc1Br
[1]
  fold change (FC): 0
[2]
  fold change (FC): 0.16

## CC(C)[C@H](NC(=O)c1cc(-c2cnn3cc(-c4ccc(OCCN5CCCCC5)cc4)cnc23)cs1)C(F)(F)F
[3]
  fold change (FC): 0.13
[4]
  inhibition: 8%

## O=C(N[C@@H](C1CC1)C(F)(F)F)c1cc(-c2cnn3cc(-c4ccc(F)cc4)cnc23)cs1
[5]
  fold change (FC): 0
[6]
  inhibition: 0%
[7]
  inhibition: 34%
[8]
  fold change (FC): 0
